Reference: ChEMBL document CHEMBL3886432, “Purinylpyridinylamino-2,4-difluorophenyl sulfonamide derivative, pharmaceutically acceptable salt thereof, preparation method thereof, and pharmaceutical composition with inhibitory activity against Raf kinase, containing same as active ingredient” (2015)

Biological target: Serine/threonine-protein kinase B-raf (Homo sapiens, UniProt P15056)
Assay: The solutions in the tube were collected on the bottom via centrifugation and were reacted at 30° C. for 30 minutes.

Sequence of Serine/threonine-protein kinase B-raf (P15056 whole entry): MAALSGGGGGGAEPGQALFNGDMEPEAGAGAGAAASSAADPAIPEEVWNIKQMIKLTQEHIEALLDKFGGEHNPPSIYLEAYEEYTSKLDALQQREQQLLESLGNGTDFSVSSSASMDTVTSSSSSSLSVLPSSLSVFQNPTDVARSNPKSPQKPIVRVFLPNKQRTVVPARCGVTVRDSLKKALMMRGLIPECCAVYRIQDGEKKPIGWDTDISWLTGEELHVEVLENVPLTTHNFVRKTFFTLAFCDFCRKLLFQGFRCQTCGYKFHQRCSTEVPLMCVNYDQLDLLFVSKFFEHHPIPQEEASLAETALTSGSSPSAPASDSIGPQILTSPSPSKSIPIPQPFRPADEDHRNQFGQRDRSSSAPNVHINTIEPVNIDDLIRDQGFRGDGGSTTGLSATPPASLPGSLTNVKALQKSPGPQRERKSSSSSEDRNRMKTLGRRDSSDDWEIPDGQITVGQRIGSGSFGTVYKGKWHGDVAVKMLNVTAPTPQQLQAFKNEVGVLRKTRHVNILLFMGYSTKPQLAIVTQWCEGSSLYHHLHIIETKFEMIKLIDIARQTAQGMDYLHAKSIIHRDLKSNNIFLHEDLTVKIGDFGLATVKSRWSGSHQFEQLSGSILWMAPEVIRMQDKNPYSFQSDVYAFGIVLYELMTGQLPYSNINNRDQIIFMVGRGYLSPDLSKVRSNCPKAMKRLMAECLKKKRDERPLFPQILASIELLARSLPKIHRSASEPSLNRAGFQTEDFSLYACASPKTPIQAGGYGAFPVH

IC50: 20 nM
Compound: O=S(=O)(Nc1ccc(F)c(Nc2ncccc2-c2ncnc3[nH]cnc23)c1F)c1ccc(Cl)s1
